# Tests used:
# Format in all cases: in vivo
# tomatoes = test: Foliar application to tomato, yield; settings: for change in fruit weight per plant vs no spray control: Roma, Bt.4Q7Flg22 16.7 μM at 4.0 Fl. oz/Ac, Gm.RHPP 100 μM at 3.2 Fl. oz/Ac
# Experimental: Small scale plots were designed to simulate commercial growing conditions for tomatoes. Two hybrids of tomatoes, JetSetter (Trial 1) and Better Big Boy (Trial 2) were started as transplants in the greenhouse 42 to 56 days prior to planting in the raised field beds. Tomatoes were transplanted once soil temperatures three inches (7.6 cm) beneath the soil surface reach 60° F. (15.5° C.). Tomatoes were grown on raised beds covered with black plastic mulch. Plants were grown using drip irrigation and fertilizer applied following grower guidelines throughout the growing season to ensure optimum plant growth and yields. Small raised bed plots were designed to simulate the planting densities used by commercial growers that generally plant 2,600 to 5,800 plants per acre in single rows with 18 to 30 inches (46 to 76 cm) between plants in the row on 5- to 6.5-ft (1.5 to 2 m) centers.
# Foliar treatments of Bt.4Q7 Flg22 and Ec. […] Replicated trials were conducted at the University of Missouri (Columbia, Mo.) in July. Control plants were treated with equal volumes (use rates) of water. Effects of the foliar treatments on increasing yield in tomatoes were determined and reported as normalized to the water control treatment.
# In another experiment, tomato plants (hybrid: Better Boy), cultivated as described in the previous example, were treated with a formulation of Bt.4Q7 Flg22 at the first bloom stage. The formulation used consisted of the retro inverso D RI Bt.4Q7 Flg22 applied with 0.01% (v/v) non-ionic surfactant. […] At harvest, the yield was measured as the number of fruits per plant, the weight (grams) per fruit and the total yield (lbs/Ac). Table 29 reports the yield as a percent comparison or change to the non-treated control (water only) plants.
# Foliar application treatments of Gm.RHPP (SEQ ID NO: 600) was applied as an exogenous spray at the pre-bloom stage and used to increase yield in tomatoes. Two tomato hybrids (JetSetter and Better Big Boy) were planted in small scale plots as described in Example 12. […] Replicated trials were conducted at the US Midwest (Missouri) in July. The foliar treatment of Gm.RHPP on tomato plants was compared to the control (water applied at same use rate). Effects of the foliar treatments on increasing yield in tomatoes were determined and reported as normalized to the water control treatment and reported as the average percentage change in yield over the average control yield in Table 41.
# Small scale plots were designed to simulate commercial growing conditions for tomatoes. Tomato plants, variety Roma were started from transplants that were grown in a greenhouse for 45 days prior to planting into 2 raised field row beds with 2 feet (0.6 meters) between each transplant with an average of 30 plants per row bed. […] Tomatoes were grown on raised beds covered with black plastic mulch. Plants were grown using drip irrigation and fertilizer (80 lbs. or 36.3 kg) nitrogen; 100 lbs. (45.4 kg) phosphate, and 100 lbs. (45.4 kg) potash or potassium) applied following grower guidelines throughout the growing season to provide for optimum plant growth and yields. Small raised bed plots were designed to simulate the planting densities used by commercial growers that generally plant 2,600 to 5,800 plants per acre in single rows with 45.7 to 76.2 cm between plants in the row on 1.5- to 2-meter centers. [Orzolek et al., “Agricultural Alternatives: Tomato Production.” University Park: Penn State Extension, 2016].
# Foliar treatments using Bt.4Q7Flg22 and Gm.RHPP were applied on the tomato plants directly at early bloom (first flower) stage.
# Phakopsora pachyrhizi = test: Asian soybean rust severity and defoliation, field trials in Paraguay; settings: for defoliation: Yatytay site; for less Asian soybean rust leaf area damage than untreated control: two foliar applications from R1, 150 and 300 mL/Ha
# Cercospora kikuchii = test: Cercospora leaf blight severity, field trials in Paraguay; settings: two foliar applications from R1, 150 and 300 mL/Ha
# Experimental: FOX is a commercially available foliar fungicide in South America with limited efficacy for preventative and curative treatment of Asian soybean rust caused by Phakopsora pachyrhizi and Cercospora leaf blight of soybean caused by Cercospora kikuchii applied as a foliar spray following the recommendations on the specimen label at a use rate of 5.48 fluid ounces per acre (Fl. oz/Ac) (400 mL/hectare). Beginning at the R1 stage of development, soybean plants received two foliar applications of the compositions described in Table 90 with an interval of 13-14 days between spray applications. […] Disease assessments for trials that were naturally infected were scored for the severity of infection (0-100% of foliage affected) were scored for 10 plants within each plot for both Asian soybean rust caused by Phakopsora pachyrhizi and Cercospora leaf blight of soybean caused by Cercospora kikuchii at the R4-R5 stage of soy development (4-15 days after second foliar application) with guidance from Godoy et al (1997; Journal of plant diseases and protection 104:336-345). Percent phytotoxicity (0-100% of foliage affected) was also scored at the R4-R5 stage of soy development. […] Standard deviation for each treatment between the three sites was calculated. […]
# soybean [1] = test: Soybean yield in trials infected with Phakopsora pachyrhizi and Cercospora kikuchii, Paraguay; settings: for yield increase vs untreated control: FOX Fungicide where combined
# Text: Beginning at the R1 stage of development, soybean plants received two foliar applications of the compositions described in Table 90 with an interval of 13-14 days between spray applications. Foliar treatments were applied to a single soy variety (which one? Same at all 3 sites) at the three sites, with 4 replicated plots (3×10 meters, 30 m2; with minimum of 6 rows per treatment). Disease assessments for trials that were naturally infected were scored for the severity of infection (0-100% of foliage affected) were scored for 10 plants within each plot for both Asian soybean rust caused by Phakopsora pachyrhizi and Cercospora leaf blight of soybean caused by Cercospora kikuchii at the R4-R5 stage of soy development (4-15 days after second foliar application) with guidance from Godoy et al (1997; Journal of plant diseases and protection 104:336-345). Percent phytotoxicity (0-100% of foliage affected) was also scored at the R4-R5 stage of soy development. Severity of infection and phytotoxicity were averaged across all four replicates per site (Total=12 replicates, 3 sites with 4 replicates each). Standard deviation for each treatment between the three sites was calculated.
# soybean [2] = test: Foliar application to soybean, field yield trials; settings: foliar at R2, AG2836, 7 US Midwest locations
# [3] = foliar 1 Fl. oz/Ac at early bloom, vs water control
# [4] = 1 Fl. oz/Ac, first bloom, hybrid Better Boy, formulation with 0.01% non-ionic surfactant
# [5] = 1 Fl. oz/Ac, foliar at early bloom
# [6] = 20 Fl. oz/Ac, foliar at early bloom
substance,measurement,setting,value
"GGIRAAPTGNER (Glycine max) [RHPP, Root Hair Promoting Peptide from Glycine max]",increase in tomato yield over control,"tomatoes; 1 Fl. oz/Ac, Better Big Boy",10%
same,increase in tomato yield over control,"tomatoes; 1 Fl. oz/Ac, Jetsetter hybrid",93%
same,"average increase in tomato yield over control, two hybrids","tomatoes; 1 Fl. oz/Ac, early bloom",52%
same,Percentage Change in Fruit Weight Compared to No-Spray Control,"tomatoes; Roma tomato, foliar at early bloom, Bt.4Q7Flg22 16.7 μM 4.0 Fl. oz/Ac, Gm.RHPP 100 μM 3.2 Fl. oz/Ac",+1.99%
same,Average Fruit Weight (grams) per Plant,"tomatoes; Roma tomato, foliar at early bloom, Bt.4Q7Flg22 16.7 μM 4.0 Fl. oz/Ac, Gm.RHPP 100 μM 3.2 Fl. oz/Ac, 2 harvests",1397.1 grams
same,change in fruit weight per plant vs no spray control,tomatoes,~2%
same,Average Trials 1 & 2 Percent Change Yield over Avg. Control,"tomatoes; foliar 1 Fl. oz/Ac at early bloom, both tomato hybrids",+52%
same,Trial 1: Percent Change in Yield over Avg. Control; Hybrid: Jetsetter,tomatoes; [3],+93%
same,Trial 2: Percent Change in Yield over Avg. Control; Hybrid: Better Big Boy,tomatoes; [3],+10%
same,defoliation,"Phakopsora pachyrhizi; R7, 150 mL/Ha",96%
same,defoliation,"Phakopsora pachyrhizi; R7, 300 mL/Ha",70%
same,less Asian soybean rust leaf area damage than untreated control,Phakopsora pachyrhizi,10.5-11.3%
same,less Cercospora leaf area damage than untreated control,Cercospora kikuchii,3.3-4.5%
same,yield increase vs untreated control,soybean [1]; polypeptide 150 mL/Ha,294.2 kg/Ha
same,yield increase vs untreated control,soybean [1]; polypeptide 300 mL/Ha,506.8 kg/Ha
same,Average Total Yield Bu/Ac Variety 1,soybean [2]; use rate 0.33 Fl. oz/Ac,59.15 Bu/Ac
Bt.4Q7Flg22: Flg22 polypeptide (22 amino acids) from flagellin of Bacillus thuringiensis strain 4Q7 (DRLSSGKRINSASDDAAGLAIA; listed as Bacillus thuringiensis),Percent Change in Number of Fruits per Plant Compared to Control,tomatoes; [4],+12%
same,Percent Change in Weight/Fruit Compared to Control,tomatoes; [4],+9%
same,Percent Change in Yield (lbs/Ac) Compared to Control,tomatoes; [4],+21%
same,Average Trials 1 & 2 Percent Change Yield over Avg. Control,tomatoes; [5],+25%
same,Trial 1: Percent Change in Yield over Avg. Control; Hybrid: Jetsetter,tomatoes; [5],+49%
same,Trial 2: Percent Change in Yield over Avg. Control; Hybrid: Better Big Boy,tomatoes; [5],+1%
same,Average Trials 1 & 2 Percent Change Yield over Avg. Control,tomatoes; [6],+17%
same,Trial 1: Percent Change in Yield over Avg. Control; Hybrid: Jetsetter,tomatoes; [6],+22%
same,Trial 2: Percent Change in Yield over Avg. Control; Hybrid: Better Big Boy,tomatoes; [6],+12%
same,change in fruit weight per plant vs no spray control,tomatoes,8.61%
same,"increase in tomato yield over control, two hybrids averaged","tomatoes; early bloom, high rate 20 Fl. oz/Ac",17%
same,"increase in tomato yield over control, two hybrids averaged","tomatoes; early bloom, low rate 1 Fl. oz/Ac",25%
same,defoliation,"Phakopsora pachyrhizi; R7, 150 mL/Ha",70%
same,defoliation,"Phakopsora pachyrhizi; R7, 300 mL/Ha",60%
same,less Asian soybean rust leaf area damage than untreated control,Phakopsora pachyrhizi,12.4-13.0%
same,less Cercospora leaf area damage than untreated control,Cercospora kikuchii,2.8-3.5%
same,increase in yield (relative),"soybean [1]; Bt.4Q7Flg22 300 mL/Ha, FOX Fungicide at label rate",36.1%
same,yield increase vs untreated control,soybean [1]; polypeptide 150 mL/Ha,342.2 kg/Ha
same,yield increase vs untreated control,soybean [1]; polypeptide 300 mL/Ha,427.2 kg/Ha
same,Average Total Yield Bu/Ac Variety 1,soybean [2]; use rate 0.33 Fl. oz/Ac,60.33 Bu/Ac
same,Average Total Yield Bu/Ac Variety 1,soybean [2]; use rate 4.0 Fl. oz/Ac,57.61 Bu/Ac
same,Average Total Yield Bu/Ac Variety 1,soybean [2]; use rate 8.0 Fl. oz/Ac,59.05 Bu/Ac
